Assays:
P23H opsin = assay: Rhodopsin purification and regeneration (P23H cells treated with compound, regenerated with 9-cis-retinal, 480-500 nm absorbance); settings: for Fold Increase Over Control (480-500 nm absorbance as fold increase over the DMSO control): P23H cells, 48 hours, regeneration with 9-cis-retinal (20 μM)

Row | SMILES | Fold Increase Over Control (480-500 nm absorbance as fold increase over the DMSO control) (P23H opsin; compound concentration 20 μM) [fold] | Fold Increase Over Control (480-500 nm absorbance as fold increase over the DMSO control) (P23H opsin; compound concentration 10 μM) [fold] | further results
1 | CC1(C)CCC[C@@]2(C)CC(O)C[C@@H]12 (mixture of isomers) [Compound 63, (±)-(3aS,7aS)-3a,7,7-trimethyloctahydro-1H-inden-2-ol] | 2.3 | – | –
2 | CC1=C(C)[C@H]2[C@H](CCCC2(C)C)C1=O (racemic) [Compound 64, (±)-(3aS,7aS)-2,3,4,4-tetramethyl-3a,4,5,6,7,7a-hexahydro-1H-inden-1-one] | 2.1 | – | –
3 | CC1=C(C)[C@]2(C)CCCC(C)(C)[C@@H]2C1=O (racemic) [Compound 65, (±)-(3aR,7aS)-2,3,3a,7,7-pentamethyl-3a,4,5,6,7,7a-hexahydro-1H-inden-1-one] | 1.8 | – | –
4 | CC1=C(C)[C@]2(C)CCCC(C)(C)[C@@H]2[C@H]1O (racemic) [Compound 66, (±)-(1R,3aR,7aS)-2,3,3a,7,7-pentamethyl-3a,4,5,6,7,7a-hexahydro 1H inden-1-ol] | 1.9 | – | –
5 | C[C@H]1C(=O)C=C2[C@H]1CCCC2(C)C (racemic) [Compound 67, (±)-(1R,7aS)-1,4,4-trimethyl-5,6,7,7a-tetrahydro-1H-inden-2(4H)-one] | 1.8 | – | –
6 | C[C@@H]1CC(=O)C2=CCCC(C)(C)[C@H]21 (racemic) [Compound 71, (±)-(3R,3aR)-3,4,4-trimethyl-2,3,3a,4,5,6-hexahydro-1H-inden-1-one] | 2.2 | – | –
7 | CC1=C(C)[C@H]2[C@H](CCCC2(C)C)[C@@H]1O (racemic) [Compound 72, (±)-(1S,3aS,7aS)-2,3,4,4-tetramethyl-3a,4,5,6,7,7a-hexahydro-1H-inden-1-ol] | 1.9 | – | –
8 | CC1(C)CCC(C)(C)C2CC(=O)C=C21 (single isomer, unassigned) [Compound 69b, (−)-4,4,7,7-tetramethyl-5,6,7,7a-tetrahydro-1H-inden-2(4H)-one] | 1.8 | – | –
9 | CN1CC2=C(C1=O)C(C)(C)CCC2 [Compound 13, 2,7,7-trimethyl-2,3,4,5,6,7-hexahydro-1H-isoindol-1-one] | 2.2 | – | –
10 | CC1(C)CCCC2=CC(=O)CC21 (stereo not drawn) [Compound 27, 7,7-dimethyl-5,6,7,7a-tetrahydro-1H-inden-2(4H)-one] | – | 2.0 | –
11 | CC1(C)CCCC2(C)CC(=NO)C=C12 (stereo not drawn) [Compound 30, 4,4,7a-trimethyl-5,6,7,7a-tetrahydro-1H-inden-2(4H)-one oxime] | – | 1.8 | –
12 | CON=C1C=C2C(C)(C)CCCC2(C)C1 (stereo not drawn) [Compound 31, 4,4,7a-trimethyl-5,6,7,7a-tetrahydro-1H-inden-2(4H)-one O-methyl oxime] | – | 1.6 | –
13 | CC1(C)CCC(C)(C)C2CC(=O)C=C21 (stereo not drawn) [Compound 41, 4,4,7,7-tetramethyl-5,6,7,7a-tetrahydro-1H-inden-2(4H)-one] | – | 1.9 | –
14 | CC1(C)CCCC2CC(=O)C=C21 (stereo not drawn) [Compound 53, 4,4-dimethyl-5,6,7,7a-tetrahydro-1H-inden-2(4H)-one] | – | 1.7 | –
15 | CC1(C)CCCC2CC(=NO)CC21 (stereo not drawn) [Compound 55, 4,4-dimethylhexahydro-1H-inden-2(3H)-one oxime] | – | 2.8 | –
16 | CC1(C)CCCC2=C1CCC2=O [Compound 56, 4,4-dimethyl-2,3,4,5,6,7-hexahydro-1H-inden-1-one] | – | 1.7 | –
17 | CC1(C)CCC(C)(C)[C@H]2CC(=O)C=C21 [Compound 69a, (+)-4,4,7,7-tetramethyl-5,6,7,7a-tetrahydro-1H-inden-2(4H)-one] | 2.0 | – | melting point: 35 to 38 °C
18 | CC1(C)CCC(C)(C)[C@H]2CC(=O)C[C@H]21 [Compound 70, (3aR,7aS) and (3aS,7aR)-4,4,7,7-tetramethylhexahydro-1H-inden-2(3H)-one] | 1.9 | – | –
19 | CC(=O)/C=C/C1=C(C)CCCC1(C)C [β-ionone, reference compound] | 2.4 | – | regeneration of 500 nm absorbing pigment upon treatment with retinal (P23H opsin; FIG. 1, P23H opsin treated with 20 µM during mutant protein production, relative to vehicle (DMSO) alone): increase

— patent US9499464B2, “Opsin-binding ligands, compositions and methods of use” (priority 2011, dated 2016)
